Experimental data published in EP4198126B1 (priority 2021, dated 2023).
Like-named read-outs stand apart in the source and are kept apart here.

Assays:
[1] = system: HEK293 eTLR cells; conditions: for HDR rates: compounds added 24 hours post-transfection, FACS 72 h after transfection, Figure 2A
[2] = system: HEK293 eTLR cells; conditions: treated four hours before transfection; FACS 72 h after transfection; Figure 3
[3] = system: CRISPR-mediated homology-directed repair (HDR); conditions: description of the known compound; cited from earlier work

| Compound | HDR rates [1] | HDR rates [2] | enhancement of CRISPR-mediated homology-directed repair (HDR) [3] | concentration at which the HDR rates are maximally increased ([1]; range tested 0.5 to 2 µM, Figure 2B) |
| --- | --- | --- | --- | --- |
| COc1ccc([C@@H](O)c2cc(-c3ncnc4cc(N5CCOCC5)ccc34)c(F)cc2Cl)nn1 [M3814] | increased HDR rates | significantly higher HDR rates than ITD Alt-R HDR Enhancer V2 |  |  |
| NU7441 | increased HDR rates |  |  |  |
| c1cnccn1 [SCR7 pyrazine] |  |  | up to 19 fold |  |
| Cc1cc2ncnn2cc1Nc1ncc2c(n1)n(C1CCOCC1)c(=O)n2C [AZD-7648] | increased HDR rates | significantly higher HDR rates than ITD Alt-R HDR Enhancer V2 |  | 0.5 µM |
